From US9624223B2, “Morphinan derivative” (THE KITASATO INSTITUTE, priority 2013, dated 2017)
Marks after values point to notes of the source that are not given here.

Tests used:
[1] = target: T1, human opioid receptor δ (Homo sapiens, UniProt P41143); experiment: Opioid receptor function test (Lance Ultra cAMP Kit), δ receptor; type: cell-based; conditions: for EC50: agonistic activity, human δ receptor-expressing CHO cells, cAMP, forskolin; for Emax: maximum reaction relative to SNC 80 taken as 100%
T1 construct: host or cells: CHO cells
T1 sequence (P41143 whole entry): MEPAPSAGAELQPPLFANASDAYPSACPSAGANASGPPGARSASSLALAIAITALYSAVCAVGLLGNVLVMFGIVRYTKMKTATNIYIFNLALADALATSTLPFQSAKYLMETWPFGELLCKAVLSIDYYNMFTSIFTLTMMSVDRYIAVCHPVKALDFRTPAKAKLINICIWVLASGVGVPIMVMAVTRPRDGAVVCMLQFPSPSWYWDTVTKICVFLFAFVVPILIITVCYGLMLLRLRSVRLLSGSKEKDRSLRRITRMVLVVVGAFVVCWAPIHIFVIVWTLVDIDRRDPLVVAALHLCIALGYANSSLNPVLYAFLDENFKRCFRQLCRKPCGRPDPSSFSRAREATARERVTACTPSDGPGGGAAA
Experimental: (§1) Functional activities of the compounds of the present invention on the μ, δ, and κ opioid receptors were examined.
(§2) The test was performed by using Lance Ultra cAMP Kit (Perkin-Elmer) according the prescribed method. In the evaluation of the agonistic activity, each human opioid receptor (δ, μ, and κ, accession numbers and catalog numbers are mentioned below)-expressing CHO cells and 10 μM of a test compound were reacted for 30 minutes in the presence of forskolin in an assay buffer (1×HBSS, […], pH 7.4, […] (isobutylmethylxanthine), 7.5% BSA). The cAMP detection reagent included in the kit was then added, and 1 hour afterward, time decomposition fluorometry was performed by using EnVision plate reader (Perkin-Elmer). […] The Emax value was calculated as a ratio of the maximum reaction of the test compound based on the maximum reaction of each control drug, which was taken as 100%.
(§3) • (+)-4-[(αR)-α-(2S,5R)-4-Allyl-2,5-dimethyl-1-piperazinyl]-3-methoxybenzyl]-N,N-diethylbenzamide DAMGO: • [D-Ala^2,N-MePhe^4,Gly-ol]enkephalin U-69593: • (+)-(5α,7α,8β)-N-Methyl-N-[7-(1-pyrrolidinyl)-1-oxaspiro[4.5]dec-8-yl]benzeneacetamide Accession Numbers and Catalog Numbers δ: Catalog No. CT4607, accession No. NM_000911.2 μ: Catalog No. CT4605, accession No. NM_000914 κ: Catalog No. CT4606, accession No. NM_000912 (ChanTest Corporation)

[2] = target: T2, human opioid receptor μ (Homo sapiens, UniProt P35372); experiment: Opioid receptor function test (Lance Ultra cAMP Kit), μ receptor; type: cell-based; conditions: for μ Receptor reaction ratio at the maximum concentration (reference value): 10 μM, maximum reaction not attained, DAMGO = 100%; for EC50: agonistic activity, human μ receptor-expressing CHO cells, cAMP, forskolin; for Emax: maximum reaction relative to DAMGO taken as 100%
T2 construct: host or cells: CHO cells
T2 sequence (P35372 whole entry): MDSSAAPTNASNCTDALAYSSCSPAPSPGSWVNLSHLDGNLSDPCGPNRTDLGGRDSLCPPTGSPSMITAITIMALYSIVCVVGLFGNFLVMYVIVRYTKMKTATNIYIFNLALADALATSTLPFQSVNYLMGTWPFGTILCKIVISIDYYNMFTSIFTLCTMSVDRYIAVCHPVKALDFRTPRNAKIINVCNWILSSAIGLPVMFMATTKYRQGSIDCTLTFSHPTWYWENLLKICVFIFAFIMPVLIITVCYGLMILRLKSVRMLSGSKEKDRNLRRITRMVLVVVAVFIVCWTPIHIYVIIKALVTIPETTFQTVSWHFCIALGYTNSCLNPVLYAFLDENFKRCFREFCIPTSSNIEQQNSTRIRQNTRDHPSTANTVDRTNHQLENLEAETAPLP
Experimental: as §1, §2, §3

[3] = target: T3, human opioid receptor κ (Homo sapiens, UniProt P41145); experiment: Opioid receptor function test (Lance Ultra cAMP Kit), κ receptor; type: cell-based; conditions: for κ Receptor reaction ratio at the maximum concentration (reference value): 10 μM, maximum reaction not attained, U-69593 = 100%; for EC50: agonistic activity, human κ receptor-expressing CHO cells, cAMP, forskolin; for Emax: maximum reaction relative to U-69593 taken as 100%
T3 construct: host or cells: CHO cells
T3 sequence (P41145 whole entry): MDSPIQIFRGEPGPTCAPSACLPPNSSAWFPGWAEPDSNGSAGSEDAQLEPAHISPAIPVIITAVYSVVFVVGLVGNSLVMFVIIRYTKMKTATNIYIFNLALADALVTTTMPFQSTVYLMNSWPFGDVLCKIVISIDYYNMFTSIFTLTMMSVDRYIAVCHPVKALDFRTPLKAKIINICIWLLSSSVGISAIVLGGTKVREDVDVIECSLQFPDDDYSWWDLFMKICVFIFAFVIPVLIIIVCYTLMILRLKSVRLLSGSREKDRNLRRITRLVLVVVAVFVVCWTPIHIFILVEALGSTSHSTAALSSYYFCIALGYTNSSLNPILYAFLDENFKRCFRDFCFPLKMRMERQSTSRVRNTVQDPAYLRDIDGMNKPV
Experimental: as §1, §2, §3

[4] = target: T4, δ opioid receptor (Mus musculus, UniProt P32300); experiment: Opioid receptor binding test, [3H]DPDPE, mouse cerebrum membrane fraction; conditions: read-out: Binding affinity (Ki, nM) δ
T4 construct: In the assays for the μ and δ receptors, the mouse cerebrum membrane fraction was used; from tissue; host or cells: mouse cerebrum membrane fraction
T4 sequence (P32300 whole entry): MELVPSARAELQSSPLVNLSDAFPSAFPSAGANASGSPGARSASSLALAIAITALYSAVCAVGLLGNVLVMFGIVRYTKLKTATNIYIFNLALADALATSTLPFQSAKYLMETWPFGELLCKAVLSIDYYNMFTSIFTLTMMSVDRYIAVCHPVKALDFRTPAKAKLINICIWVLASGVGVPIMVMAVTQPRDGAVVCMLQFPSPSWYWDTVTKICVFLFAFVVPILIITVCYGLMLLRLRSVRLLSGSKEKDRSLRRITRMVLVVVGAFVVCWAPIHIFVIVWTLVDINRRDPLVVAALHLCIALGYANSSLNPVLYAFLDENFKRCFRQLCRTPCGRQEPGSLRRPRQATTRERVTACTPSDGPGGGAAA
Experimental: (§4) Binding affinities of the compounds of the present invention to the μ, δ, and κ opioid receptors were examined.
(§5) According to a previous report (J. Biol. Chem., 2001, 276:15409-15414), mouse cerebrum and guinea pig cerebellum membrane fractions were prepared. As radioactive ligands for the opioid receptors, [^3H]DAMGO (μ opioid receptor), [^3H]DPDPE (δ opioid receptor), and [3H]U69,593 (κ opioid receptor) were used. In the assays for the μ and δ receptors, the mouse cerebrum membrane fraction was used, and in the assay for the κ receptor, guinea pig cerebellum membrane fraction was used. For the nonspecific binding, DAMGO, DPDPE, and U69,593 were used at 1 μM for μ, δ and κ receptors, respectively. Each receptor membrane fraction, radioactive ligand, and a sample at various concentrations were reacted for a predetermined time, and after the B/F separation, amount of radioactivity remained on the filter was measured with a liquid scintillation counter, and binding inhibition ratio of the test compound (IC50 value) was calculated. Ki value was calculated by using the resulting IC50 value in accordance with the following equation. Ki=IC50/(1+L/Kd) L: Concentration of radioactive ligand used Kd: Kd value of radioactive ligand
(§6) Further, selectivity for the δ receptor among the opioid receptors was determined by calculating ratio of the Ki value for μ or κ, and the Ki value for δ (μ/δ or κ/δ).
(§7) • [D-Ala^2,N-MePhe^4, Gly-Ol]enkephalin DPDPE: • [D-Pen^2,D-Pen^5]enkephalin

[5] = target: T5, μ opioid receptor (Mus musculus, UniProt P42866); experiment: Opioid receptor binding test, [3H]DAMGO, mouse cerebrum membrane fraction; conditions: ratio of Ki for μ to Ki for δ
T5 construct: In the assays for the μ and δ receptors, the mouse cerebrum membrane fraction was used; from tissue; host or cells: mouse cerebrum membrane fraction
T5 sequence (P42866 whole entry): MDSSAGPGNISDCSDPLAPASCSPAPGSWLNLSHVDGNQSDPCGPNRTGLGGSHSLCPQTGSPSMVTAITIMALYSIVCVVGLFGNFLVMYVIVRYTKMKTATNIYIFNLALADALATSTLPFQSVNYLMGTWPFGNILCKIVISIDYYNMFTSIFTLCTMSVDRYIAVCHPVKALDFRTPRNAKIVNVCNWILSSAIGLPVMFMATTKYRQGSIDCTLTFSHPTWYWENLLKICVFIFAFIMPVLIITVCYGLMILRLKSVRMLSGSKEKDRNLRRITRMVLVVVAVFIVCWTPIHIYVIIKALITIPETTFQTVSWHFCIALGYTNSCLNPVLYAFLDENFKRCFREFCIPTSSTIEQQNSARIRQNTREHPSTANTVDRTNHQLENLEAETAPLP
Experimental: as §4, §5, §6, §7

[6] = target: T6, κ opioid receptor (Cavia porcellus, UniProt P41144); experiment: Opioid receptor binding test, [3H]U69,593, guinea pig cerebellum membrane fraction; conditions: ratio of Ki for κ to Ki for δ
T6 construct: in the assay for the κ receptor, guinea pig cerebellum membrane fraction was used; from tissue; host or cells: guinea pig cerebellum membrane fraction
T6 sequence (P41144 whole entry): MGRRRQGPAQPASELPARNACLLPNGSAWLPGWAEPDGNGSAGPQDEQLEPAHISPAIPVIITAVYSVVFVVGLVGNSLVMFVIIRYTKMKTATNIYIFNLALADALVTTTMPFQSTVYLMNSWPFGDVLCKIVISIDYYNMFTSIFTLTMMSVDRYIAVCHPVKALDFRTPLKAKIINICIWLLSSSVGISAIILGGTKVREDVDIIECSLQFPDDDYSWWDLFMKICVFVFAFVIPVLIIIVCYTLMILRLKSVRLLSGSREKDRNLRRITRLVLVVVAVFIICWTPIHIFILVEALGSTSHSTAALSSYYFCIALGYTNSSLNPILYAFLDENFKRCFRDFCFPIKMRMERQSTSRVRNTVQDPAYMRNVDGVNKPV
Experimental: as §4, §5, §6

[7] = target: T7, hERG channel (Homo sapiens, UniProt Q12809); experiment: hERG potassium channel inhibition test (Qpatch16 patch clamp, CHO-K1 cells); type: cell-based; conditions: 10 μM; tail current inhibition, hERG-expressing CHO-K1 cells
T7 construct: expressed in transfected cells; host or cells: CHO-K1 cells
T7 sequence (Q12809 whole entry): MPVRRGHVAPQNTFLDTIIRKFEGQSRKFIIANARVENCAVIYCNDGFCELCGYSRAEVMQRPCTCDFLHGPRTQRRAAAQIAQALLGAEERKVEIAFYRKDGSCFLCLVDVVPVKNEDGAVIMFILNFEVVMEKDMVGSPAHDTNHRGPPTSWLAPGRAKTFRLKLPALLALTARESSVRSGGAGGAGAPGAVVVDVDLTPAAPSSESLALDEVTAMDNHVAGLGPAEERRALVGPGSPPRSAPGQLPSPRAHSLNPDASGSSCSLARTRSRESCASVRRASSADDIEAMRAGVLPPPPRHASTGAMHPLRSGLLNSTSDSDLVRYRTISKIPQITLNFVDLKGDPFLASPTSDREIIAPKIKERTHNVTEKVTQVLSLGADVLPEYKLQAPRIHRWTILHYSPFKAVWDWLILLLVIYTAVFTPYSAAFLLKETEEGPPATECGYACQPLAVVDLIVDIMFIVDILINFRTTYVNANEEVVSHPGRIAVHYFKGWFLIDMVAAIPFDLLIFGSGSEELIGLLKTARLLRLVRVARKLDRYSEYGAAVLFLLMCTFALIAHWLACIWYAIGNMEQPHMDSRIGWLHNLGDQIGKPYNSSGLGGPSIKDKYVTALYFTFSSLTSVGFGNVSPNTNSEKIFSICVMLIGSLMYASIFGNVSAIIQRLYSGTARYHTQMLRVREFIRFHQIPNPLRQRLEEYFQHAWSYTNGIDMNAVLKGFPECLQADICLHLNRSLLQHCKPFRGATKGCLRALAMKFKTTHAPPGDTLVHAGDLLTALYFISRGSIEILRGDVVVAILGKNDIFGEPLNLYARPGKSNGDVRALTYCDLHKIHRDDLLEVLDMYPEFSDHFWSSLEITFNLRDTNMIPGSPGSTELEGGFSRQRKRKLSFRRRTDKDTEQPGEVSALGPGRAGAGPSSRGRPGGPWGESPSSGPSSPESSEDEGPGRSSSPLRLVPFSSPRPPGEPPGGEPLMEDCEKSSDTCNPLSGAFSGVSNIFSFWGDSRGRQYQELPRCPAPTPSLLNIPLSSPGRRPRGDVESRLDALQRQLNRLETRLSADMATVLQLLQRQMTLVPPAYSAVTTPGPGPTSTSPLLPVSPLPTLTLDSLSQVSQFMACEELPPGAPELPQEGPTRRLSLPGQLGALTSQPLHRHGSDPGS
Experimental: The test was performed with Qpatch16 (Sophion Biosciences Inc.) full automatic patch clamp system using hERG channel-stably expressing CHO-K1 cells. The hERG channel inhibitory action of each test compound was obtained on the basis of inhibitory action against a tail current induced by a test pulse at […] for 1 second applied after retention at +20 mV for 2 seconds. The test compound was dissolved in an extracellular fluid (137 mM NaCl, 4 mM KCl, 1.8 mM CaCl2, 1 mM MgCl2, 10 mM D(+)-glucose, 10 mM HEPES, pH 7.4), and the solution was […] at room temperature for 5 minutes. The inhibition ratio was obtained from the ratio of the tail current value observed after the compound was applied based on the tail current value observed before the compound was applied, which was taken as 100%. Cells were used for the test, where the cells show a peak tail current value not smaller than 100 pA, tail current run-down smaller than 30% of the initial current value, leak current smaller than 50% of the peak value of the tail current, and series resistance value lower than 20 MΩ.

Row | SMILES | EC50 [1] [nM] | Emax [1] [%] | μ Receptor reaction ratio at the maximum concentration (reference value) [2] | κ Receptor reaction ratio at the maximum concentration (reference value) [3] | Ki [4] [nM] | δ-receptor selectivity (Ki value ratio) μ/δ [5] | δ-receptor selectivity (Ki value ratio) κ/δ [6] | EC50 [2] [nM] | Emax [2] [%] | HERG channel inhibitory action [7] [%] | EC50 [3] [nM] | Emax [3] [%]
1 | C[C@H](N)CN1CCC23c4cc(O)ccc4CC1C21CCC2C3[C@@H](CN2C(=O)c2ccccc2)C1 (some centres unmarked) [Compound 43] | < 10 | 109 | (8.2)^a % | (7.2)^a % | < 1 | >10 | >10 |  |  |  |  | 
2 | O=C(c1ccccc1)N1C[C@H]2CC34CCC1C2C31CCN(C[C@@H]2CCCCN2)C4Cc2ccc(O)cc21 (some centres unmarked) [Compound 47] |  |  |  |  | < 10 | >10 | >10 |  |  |  |  | 
3 | O=C(c1ccccc1)N1C[C@H]2C[C@@]34CC[C@@H]1[C@@H]2[C@@]31CCN(C[C@@H]2CCCN2)[C@@H]4Cc2ccc(O)cc21 [Compound 19, [(1S,3aR,5aS,6R,11bR,11cS)-10-hydroxy-14-[[(2S)-pyrrolidin-2-yl]methyl]-1,2,3a,4,5,6,7,11c-octahydro-3H-6,11b-(epiminoethano)-1,5a-methanonaphtho[1,2-e]indol-3-yl](phenyl)methanone] | < 10 | 106 |  | (2.6)^a % |  |  |  | > 100 | 27 | <50 |  | 
4 | N[C@@H](CO)CN1CC[C@@]23c4cc(O)ccc4C[C@@H]1[C@]21CC[C@@H]2[C@H]3[C@@H](CN2C(=O)c2ccccc2)C1 [Compound 64, [(1S,3aR,5aS,6R,11bR,11cS)-14-[(2R)-2-amino-3-hydroxypropyl]-10-hydroxy-1,2,3a,4,5,6,7,11c-octahydro-3H-6,11b-(epiminoethano)-1,5a-methanonaphtho[1,2-e]indol-3-yl](phenyl)methanone] | < 1 | 105 | (60)^a % | (9.0)^a % |  |  |  |  |  | <50 |  | 
5 | NCCN1CC[C@@]23c4cc(O)ccc4C[C@@H]1[C@]21CC[C@@H]2[C@H]3[C@@H](CN2C(=O)c2ccccc2)C1 [Compound 13, [(1S,3aR,5aS,6R,11bR,11cS)-14-(2-aminoethyl)-10-hydroxy-1,2,3a,4,5,6,7,11c-octahydro-3H-6,11b-(epiminoethano)-1,5a-methanonaphtho[1,2-e]indol-3-yl](phenyl)methanone] | < 10 | 101 |  |  | < 10 | >10 | >10 | > 100 | 39 | <50 | > 100 | 12
6 | Cc1cc(C)nc(N2C[C@H]3C[C@@]45CC[C@@H]2[C@@H]3[C@@]42CCN(CCCN)[C@@H]5Cc3ccc(O)cc32)n1 [Compound 76, (1S,3aR,5aS,6R,11bR,11cS)-14-(3-aminopropyl)-3-(4,6-dimethylpyrimidin-2-yl)-2,3,3a,4,5,6,7,11c-octahydro-1H-6,11b-(epiminoethano)-1,5a-methanonaphtho[1,2-e]indol-10-ol] |  |  |  |  |  |  |  |  |  | <50 |  | 
7 | CN(C)CCN1CCC23c4cc(O)ccc4CC1C21CCC2C3[C@@H](CN2C(=O)c2ccccc2)C1 (some centres unmarked) [Compound 40] | < 1 | 104 |  |  |  |  |  | > 10 | 92 |  | > 10 | 22
8 | NCCCN1CCC23c4cc(O)ccc4CC1C21CCC2C3[C@@H](CN2C(=O)c2cccc3ccccc23)C1 (some centres unmarked) [Compound 55] | < 1 | 102 |  | (4.8)^a % |  |  |  | > 10 | 82 |  |  | 
9 | Cc1cc(C)nc(N2C[C@H]3C[C@@]45CC[C@@H]2[C@@H]3[C@@]42CCN(CCN(C)C)[C@@H]5Cc3ccc(O)cc32)n1 [Compound 74, (1S,3aR,5aS,6R,11bR,11cS)-14-[2-(dimethylamino)ethyl]-3-(4,6-dimethylpyrimidin-2-yl)-2,3,3a,4,5,6,7,11c-octahydro-1H-6,11b-(epiminoethano)-1,5a-methanonaphtho[1,2-e]indol-10-ol] | < 1 | 101 |  |  |  |  |  | > 10 | 121 |  | > 100 | 46
10 | O=C(c1ccccc1)N1C[C@H]2CC34CCC1C2C31CCN(CC2CNC2)C4Cc2ccc(O)cc21 (some centres unmarked) [Compound 49] | < 1 | 108 |  |  |  |  |  | > 100 | 105 |  | > 100 | 28
11 | NCC(O)CN1CC[C@@]23c4cc(O)ccc4C[C@@H]1[C@]21CC[C@@H]2[C@H]3[C@@H](CN2C(=O)c2ccccc2)C1 (single isomer, unassigned) [Compound 62a] | < 1 | 108 |  | (1.7)^a % |  |  |  | > 100 | 106 |  |  | 
12 | NCCCN1CCC23c4cc(O)ccc4CC1C21CCC2C3[C@@H](CN2C(=O)c2ccccc2)C1 (some centres unmarked) [Compound 41] | < 1 | 103 |  | (15)^a % |  |  |  | > 100 | 97 |  |  | 
13 | CN1CCC[C@H]1CN1CCC23c4cc(O)ccc4CC1C21CCC2C3[C@@H](CN2C(=O)c2ccccc2)C1 (stereo partly drawn) [Compound 20, [(1S,3aR,5aS,6R,11bR,11cS)-10-hydroxy-14-[[(2S)-11-methylpyrrolidin-2-yl]methyl]-1,2,3a,4,5,6,7,11c-octahydro-3H-6,11b-(epiminoethano)-1,5a-methanonaphtho[1,2-e]indol-3-yl](phenyl)methanone] | < 1 | 103 |  |  |  |  |  | > 100 | 54 |  | > 10 | 17
